According to ChEMBL document CHEMBL4387706, “Discovery of Novel Spiroindoline Derivatives as Selective Tankyrase Inhibitors” (J Med Chem, 2019):
≈ marks a conversion by molar mass, not a printed value. Calls of active or inactive are those of the source. The rule behind the calls is not given here.

Columns and labels:
[1] = Permeability of the compound by PAMPA; assay type: ADME; conditions: read-out: permeability
[2] = Protein binding in human serum assessed as unbound fraction at 1 uM measured after 24 hrs by LC-MS/MS analysis; assay type: ADME, cell-free
[3] = Protein binding in mouse serum assessed as unbound fraction at 1 uM measured after 24 hrs by LC-MS/MS analysis; assay type: ADME, cell-free
[4] = Initial plasma concentration in Sprague-Dawley rat at 1 mg/kg, iv; assay type: ADME, organism-based
[5] = Half life in Sprague-Dawley rat at 1 mg/kg, iv; assay type: ADME, organism-based; conditions: in vivo
[6] = AUC (infinity) in Sprague-Dawley rat at 1 mg/kg, iv; assay type: ADME, organism-based; design: dose 1 mg/kg, route intravenous, time infinity; conditions: in vivo
[7] = Total clearance in Sprague-Dawley rat at 1 mg/kg, iv; assay type: ADME, organism-based; conditions: in vivo
[8] = Volume of distribution at steady state in Sprague-Dawley rat at 1 mg/kg, iv; assay type: ADME, organism-based; conditions: in vivo, read-out: Vdss
[9] = Cmax in Sprague-Dawley rat at 3 mg/kg, po; assay type: ADME, organism-based; design: dose 3 mg/kg, route oral; conditions: in vivo
[10] = Tmax in Sprague-Dawley rat at 3 mg/kg, po; assay type: ADME, organism-based; conditions: in vivo
[11] = AUC (infinity) in Sprague-Dawley rat at 3 mg/kg, po; assay type: ADME, organism-based; design: dose 3 mg/kg, time infinity, route oral; conditions: in vivo
[12] = Oral bioavailability in Sprague-Dawley rat at 3 mg/kg; assay type: ADME, organism-based; conditions: in vivo
[13] = target: Poly [ADP-ribose] polymerase 2 (Homo sapiens, UniProt Q9UGN5); experiment: Inhibition of human recombinant N-terminal GST-tagged PARP2 (2 to 583 residues) expressed in baculovirus infected Sf9 cells assessed as reduction in auto-PARylation using histone as substrate measured after 45 mins in presence of biotinylated-NAD+ by ELISA
[14] = target: T1, Protein mono-ADP-ribosyltransferase PARP10 (Homo sapiens, UniProt Q53GL7); experiment: Inhibition of human recombinant N-terminal TEV-cleavgae site-fused-FLAG/Polyhis-tagged PARP10 […] expressed in Escherichia coli assessed as reduction in auto-PARylation using histone as substrate measured after 45 mins in presence of biotinylated-NAD+ by ELISA
T1 sequence (Q53GL7 whole entry): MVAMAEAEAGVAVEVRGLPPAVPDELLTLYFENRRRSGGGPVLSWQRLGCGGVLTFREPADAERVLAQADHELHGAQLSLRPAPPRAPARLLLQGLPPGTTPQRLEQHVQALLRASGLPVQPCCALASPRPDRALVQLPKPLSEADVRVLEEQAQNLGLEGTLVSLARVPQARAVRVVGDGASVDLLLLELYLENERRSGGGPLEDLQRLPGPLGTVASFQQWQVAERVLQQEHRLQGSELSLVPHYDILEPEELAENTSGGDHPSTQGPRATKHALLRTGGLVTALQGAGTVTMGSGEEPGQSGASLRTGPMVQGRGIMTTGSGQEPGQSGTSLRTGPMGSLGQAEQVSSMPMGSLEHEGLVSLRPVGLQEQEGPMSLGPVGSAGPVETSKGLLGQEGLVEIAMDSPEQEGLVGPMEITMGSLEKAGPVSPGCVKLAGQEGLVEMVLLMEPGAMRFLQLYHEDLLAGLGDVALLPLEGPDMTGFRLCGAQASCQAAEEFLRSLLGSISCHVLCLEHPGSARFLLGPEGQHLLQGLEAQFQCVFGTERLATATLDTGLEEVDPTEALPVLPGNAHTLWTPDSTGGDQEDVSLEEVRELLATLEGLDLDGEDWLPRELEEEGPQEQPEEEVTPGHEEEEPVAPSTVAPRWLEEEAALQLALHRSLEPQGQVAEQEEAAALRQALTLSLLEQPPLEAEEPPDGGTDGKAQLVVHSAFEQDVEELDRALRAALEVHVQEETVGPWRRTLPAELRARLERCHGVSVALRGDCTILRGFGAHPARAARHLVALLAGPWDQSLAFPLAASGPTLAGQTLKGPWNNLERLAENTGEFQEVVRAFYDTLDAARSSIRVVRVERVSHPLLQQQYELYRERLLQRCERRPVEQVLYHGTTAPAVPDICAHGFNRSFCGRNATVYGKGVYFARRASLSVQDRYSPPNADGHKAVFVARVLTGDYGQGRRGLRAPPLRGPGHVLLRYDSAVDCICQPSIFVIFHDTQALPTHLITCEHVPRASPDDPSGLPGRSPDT

Homo sapiens [15] = species on record: Homo sapiens; experiment: Effect on hippo signaling protein in human COLO320DM cells assessed as change in AMOTL2 expression at 0.1 to 1 uM measured after 48 hrs by RT-PCR analysis; assay type: cell-based
Homo sapiens [16] = species on record: Homo sapiens; experiment: Effect on hippo signaling protein in human COLO320DM cells assessed as change in CTGF expression at 0.1 to 1 uM measured after 48 hrs by RT-PCR analysis; assay type: cell-based
Homo sapiens [17] = species on record: Homo sapiens; experiment: Effect on hippo signaling protein in human COLO320DM cells assessed as change in CYR61 expression at 0.1 to 1 uM measured after 48 hrs by RT-PCR analysis; assay type: cell-based
COLO 320DM = experiment: Antitumor activity against human COLO320DM cells xenografted in mouse assessed as tumor growth inhibition at 40 mg/kg, ip administered twice daily for 11 days relative to control; assay type: functional; conditions: 264 h, read-out: TGI
[18] = Toxicity in mouse xenografted with human COLO320DM cells assessed as body weight loss at 40 mg/kg, ip administered twice daily for 11 days; assay type: organism-based; conditions: in vivo, 264 h
[19] = target: Poly [ADP-ribose] polymerase 1 (Homo sapiens, UniProt P09874)
Description: Inhibition of recombinant human PARP1 expressed in Escherichia coli assessed as reduction in auto-PARylation using histone as substrate measured after 45 mins in presence of biotinylated-NAD+ by ELISA

physchem = conditions: phosphate buffer, pH 7.4
in vitro [20] = conditions: human, liver microsomes
Description: Stability in human liver microsomes assessed as parent compound remaining at 1 uM measured after 30 mins in presence of NADPH by LC-MS/MS analysis

in vitro [21] = conditions: mouse, liver microsomes
Description: Stability in mouse liver microsomes assessed as parent compound remaining at 1 uM measured after 30 mins in presence of NADPH by LC-MS/MS analysis

Sequence of Poly [ADP-ribose] polymerase 1 (P09874 whole entry): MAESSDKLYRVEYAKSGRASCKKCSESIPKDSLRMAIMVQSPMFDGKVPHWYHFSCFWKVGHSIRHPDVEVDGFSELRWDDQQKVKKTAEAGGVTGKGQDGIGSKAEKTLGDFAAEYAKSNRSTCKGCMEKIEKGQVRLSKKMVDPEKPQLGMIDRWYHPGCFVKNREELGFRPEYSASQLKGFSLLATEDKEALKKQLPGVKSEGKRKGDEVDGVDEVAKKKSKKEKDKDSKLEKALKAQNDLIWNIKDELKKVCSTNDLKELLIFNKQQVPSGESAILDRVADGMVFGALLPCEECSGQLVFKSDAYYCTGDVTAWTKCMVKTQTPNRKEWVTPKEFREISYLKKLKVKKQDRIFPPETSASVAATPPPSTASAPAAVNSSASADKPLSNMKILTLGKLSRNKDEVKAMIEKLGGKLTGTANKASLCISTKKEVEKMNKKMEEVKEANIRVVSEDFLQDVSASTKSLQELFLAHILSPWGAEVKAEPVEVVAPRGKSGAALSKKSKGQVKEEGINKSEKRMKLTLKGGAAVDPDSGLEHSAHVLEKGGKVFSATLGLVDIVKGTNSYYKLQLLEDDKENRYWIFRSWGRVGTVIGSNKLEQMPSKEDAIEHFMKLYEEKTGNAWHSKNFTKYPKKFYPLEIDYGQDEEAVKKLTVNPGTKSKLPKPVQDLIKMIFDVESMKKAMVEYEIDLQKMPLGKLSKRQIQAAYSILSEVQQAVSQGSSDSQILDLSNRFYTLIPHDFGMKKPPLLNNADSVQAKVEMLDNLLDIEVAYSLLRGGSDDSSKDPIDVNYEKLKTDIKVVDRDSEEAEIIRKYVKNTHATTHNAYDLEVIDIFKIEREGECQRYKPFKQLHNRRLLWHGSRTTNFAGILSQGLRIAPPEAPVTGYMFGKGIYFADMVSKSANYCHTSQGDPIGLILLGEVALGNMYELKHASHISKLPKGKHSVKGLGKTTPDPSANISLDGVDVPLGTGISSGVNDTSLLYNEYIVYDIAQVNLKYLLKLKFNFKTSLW
Sequence of Poly [ADP-ribose] polymerase 2 (Q9UGN5 whole entry, the tested form may be a part): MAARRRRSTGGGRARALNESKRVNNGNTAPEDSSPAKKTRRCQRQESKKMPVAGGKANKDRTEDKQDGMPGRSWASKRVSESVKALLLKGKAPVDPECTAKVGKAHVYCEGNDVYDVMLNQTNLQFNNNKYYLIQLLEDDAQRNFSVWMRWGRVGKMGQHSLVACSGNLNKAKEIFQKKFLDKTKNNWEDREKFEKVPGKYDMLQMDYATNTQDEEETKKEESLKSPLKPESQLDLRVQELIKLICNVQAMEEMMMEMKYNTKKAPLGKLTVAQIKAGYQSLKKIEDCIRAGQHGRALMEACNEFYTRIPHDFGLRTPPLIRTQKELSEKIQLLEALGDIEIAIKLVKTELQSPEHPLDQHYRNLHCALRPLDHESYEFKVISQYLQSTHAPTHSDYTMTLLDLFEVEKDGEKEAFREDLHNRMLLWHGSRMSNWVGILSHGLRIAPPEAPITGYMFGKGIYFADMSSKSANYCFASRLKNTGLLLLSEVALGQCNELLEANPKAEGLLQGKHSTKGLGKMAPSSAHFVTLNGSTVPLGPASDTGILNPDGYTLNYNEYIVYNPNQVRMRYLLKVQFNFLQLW

Papp [1]: 11.4 ×10⁻⁶ cm/s
fraction unbound at 24 h, 1 µM [2]: 0.028
fraction unbound at 24 h, 1 µM [3]: 0.035
C0 [4]: 1540 nM
half-life [5]: 3.3 h
AUC(0-inf) [6]: 0.79 µM·h
clearance [7]: 39.7 mL/min/kg
Vd [8]: 1.79 L/kg
Cmax [9]: 230 nM
Tmax [10]: 4 h
AUC(0-inf) [11]: 2.33 µM·h
bioavailability [12]: 97.8%
IC50 [13]: > 100 µM
IC50 [14]: > 100 µM
IC50 [19]: > 100 µM
solubility at 1 h, 200 µM (physchem): 1.5 µg/mL (≈ 2.83 µM)
remaining at 0.5 h, 1 µM (in vitro [20]): 100%
remaining at 0.5 h, 1 µM (in vitro [21]): 95.8%
SMILES: CS(=O)(=O)c1ccc(-c2nnc(/C=C/c3nnc(-c4ccc(C#N)cc4)o3)n2-c2ccccc2Cl)nc1
Activity (Homo sapiens [15]): inactive
Activity (Homo sapiens [16]): inactive
Activity (Homo sapiens [17]): inactive
inhibition in vivo at 40 mg/kg (COLO 320DM): 48%
Activity [18]: Toxic
